One data set concerns SHP2. The arrangement: method as in PMID 30972278. The settings on record: following activation; ref [29]; cited from earlier work.
The next data set deals with SupT1-GD2 cells. The data set can be described thus: Effect of inhibitory ligand expression on GD2 CAR cytotoxicity. The settings on record: ligand expressed on SupT1-GD2, E:T 1:4 and 1:8, 6 days. It counts as cell-based. The method, then: (§1) Transduced T cells were depleted of CD56 cells using the EasySep Human CD56 positive selection kit (Stemcell Technologies; 17855) and rested for 24 hours. Transduced cells were co-cultured with target cells at the indicated effector: target (E:T) ratios with target cells remaining constant at the indicated number of target cells/co-culture. At the end of the co-culture period target cells were enumerated by flow cytometry and cytotoxicity calculated as a percentage of the number of target cells recovered from co-cultures with non-transduced (NT) T cells.
Figure 3 Interaction of dSHP2 with immunoinhibitory T cell receptors. (A-E) Binding of dSHP2 to phosphorylated peptides derived from the endodomains of immunoinhibitory T cell receptors. Plates were coated with phosphorylated or non-phosphorylated peptide at the indicated concentration and the purified, His-tagged SH2 domains of dSHP2 were allowed to bind overnight. Binding was measured through detection of the His tag. (F) Effect of inhibitory ligand expression on target cells on CAR T cytotoxicity. […] Supernatants were harvested from these co-cultures and levels of IFNγ measured by ELISA (I). […] Statistical significance was measured by two-way ANOVA. […]

Data set [1] relates to tumor cell lines (SupT1, Nalm6, Raji, Skov3, CHLA, H446). The data set can be described thus: Upregulation of endogenous PDL1 by IFNγ. The data set is classed as cell-based. The following applies: IFNγ 10-400 ng/ml, 24 hours; flow cytometry. The method, then: In order to assess the effect of upregulation of endogenous PDL1 on tumour cells, cell lines were incubated for 24 hours with increasing amounts of IFNγ (10, 20, 40, 60, 80, 100, 200, 400 ng/ml) and PDL1 levels were assessed by flow cytometry.
(§2) SupT1 Nalm6 Raji Skov3 CHLA H446
(§3) Supplementary Figure 4: Effect of endogenous PDL1: A) Tumor cell lines were treated with […]
(§4) for PDL1 expression. B-D) The indicated tumor cell lines were treated with 100ng/ml IFNγ for 24 hours or left untreated following which 2x10^5 tumor cells were co-cultured with the indicated CAR T cells at an effector:target ratio of 1:1 for 48 hours (Skov3-GD2) or 96 hours (H446, CHLA255) and tumor cell killing assessed by flow cytometry and normalised to respective co-cultures with non-transduced (NT) T cells (100%). Points represent individual […]

Data set [2] has as its system Skov3-GD2, H446, CHLA255 cells. The data set can be described thus: Target cell killing after IFNγ treatment. It counts as cell-based. The settings on record: 100ng/ml IFNγ 24 hours; E:T 1:1, 48 hours (Skov3-GD2) or 96 hours (H446, CHLA255). The procedure:
as §2, §3, §4

The test system of a further data set is SHP2 (PTPN11) gene. The data set can be described thus: SHP2 gene disruption (ICE). It counts as cell-based. The following applies: Cas9 RNP nucleofection of T cells, after 6 days; 4 donors. The procedure:
(§5) Expression of the SHP2 (PTPN11) gene was disrupted by Cas9-mediated indel formation. For each sgRNA, 2 samples of 5x10^6 PBMCs were nucleofected in […] of P3 buffer (Lonza; V4XP-3024) with 125 pmol of Alt-R Sp HiFi Cas 9 nuclease v3 (IDT; 108210621) complexed with 187.5 pmol of the PTPN11 sgRNA ([…]) or a non-targeting sgRNA ([…]; Synthego) using pulse code EH-115. Complexing of Cas9 and the sgRNA was carried out at ambient temperature for 10 minutes prior to nucleofection. […] PBMCs were transduced with retroviral constructs 24 hours after nucleofection. PBMCs were collected for genotyping, Western blotting and functional assessment 6 days after nucleofection.
Genomic DNA was extracted from PBMCs using the GenElute Blood Genomic DNA Kit (Sigma; NA2010) according to the manufacturer’s instructions. The sequence flanking the SHP2 sgRNA target site was amplified by PCR from 100 ng of genomic DNA using Q5 DNA polymerase (NEB; M0491L) and the primers, SHP2_forward 5’-[…]-3’ and SHP2_reverse 5’-[…]-3’ (IDT). The PCR products were Sanger sequenced (Source Bioscience) and indel formation and knockout efficiencies determined by ICE (Synthego), comparing SHP2-edited and non-target-edited sequences to an unedited control.

The next data set deals with SHP2 protein. Kind of data set: Western blot of SHP2 after gene disruption. It counts as cell-based. The following applies: after 6 days, 4 donors. The procedure: as §5
Cells were stimulated as indicated then 0.5x10^6 cells were harvested and pelleted at 400xg for 2 minutes. The pellets were washed with ice-cold PBS, centrifuged as before and lysed in 50μl of 1x RIPA buffer (Millipore) supplemented with 1x protease and phosphatase inhibitor (Abcam). The cells were incubated on ice for 15 minutes, vortexed and incubated for further 15 minutes. The lysate was clarified by centrifuging the cells at 13000xg for 10 minutes at 4°C, protein concentration was determined using the BCA Protein assay Kit (Pierce) and stored at -80°C until use. Prior to gel electrophoresis lysates were mixed with NuPAGE™ LDS Sample Buffer (4X) (Invitrogen™) and heated at 95°C for 10 minutes. […]
Background: A western blot detects proteins with antibodies after separation by electrophoresis.

Data set [3] has as its system SupT1-GD2-PDL1 cells. Kind of data set: CAR T cytotoxicity, dSHP2 versus SHP2 knock-out. The data set is classed as cell-based. The following applies: GD2 CAR alongside PD1. The procedure:
as §1, §5
Supplementary Figure 5: Comparison of dSHP2 expression with genomic excision of SHP2. […]

The test system of data set [4] is SupT1-GD2-PDL1 target cells. Kind of data set: IFNγ release, dSHP2 versus Pembrolizumab. The data set is classed as cell-based. The following applies: GD2 CAR; Pembrolizumab 2.5, 5, 10 µg/mL; E:T 1:8, 72 hours. The procedure:
(§6) Supplementary Figure 6: Comparison of dSHP2 with Pembrolizumab. A) T cells expressing RQR8 and the GD2 CAR alone or in combination with PD1 and/or dSHP2 were incubated with 1x10^5 SupT1 cells lacking antigen expression (SupT1-NT) or engineered to express GD2 alone (SupT1-GD2) or in the presence of PDL1 (SupT1-GD2-PDL1) at an effector:target ratio of 1:8 for 72 hours. Pembrolizumab was included in co-cultures with T cells expressing PD1 and the GD2 CAR at the indicated concentrations. Surviving target cells were enumerated and normalized to the respective co-cultures with non-transduced T cells (100%). B) Supernatants from co-cultures in (A) were analyzed for IFNγ by ELISA. C-D) T cells were labelled with Cell Trace Violet and co-cultured with 2x10^5 SupT1 target cells at an E:T ratio of 1:4 for 5 days and CAR T cells enumerated. Bars represent the mean of 3-6 biologically independent replicates. […]

The test system of data set [5] is CAR T cells with SupT1-GD2-PDL1 target cells. Kind of data set: CAR T proliferation, dSHP2 versus Pembrolizumab. It counts as cell-based. The settings on record: Pembrolizumab 2.5, 5, 10 µg/mL, E:T 1:4, 5 days. The procedure: PBMCs were labelled with Cell Trace Violet (CTV) according to manufacturer’s instructions (ThermoFisher Scientific; C34557) and cultured with 0.5x10^5 target cells at 1:1 E:T ratio for 96 hours. Numbers of CD3^+ RQR8+ T cells and CTV MFI were assessed by flow cytometry.
as §6

The test system of data set [6] is SupT1-GD2-PDL1 cells. The data set can be described thus: CAR T cytotoxicity, dSHP2 versus Pembrolizumab. It counts as cell-based. The settings on record: Pembrolizumab 2.5, 5, 10 µg/mL, E:T 1:8, 72 hours, 3-6 replicates. The procedure: as §1
as §6, with “enumerated.” for “enumerated. Bars represent the mean of 3-6 biologically independent replicates.”

For the compound `CC1(N)CCN(c2cnc(-c3cccc(Cl)c3Cl)c(N)n2)CC1` [SHP099], in the data set on SHP2, the “effect on central memory population, effector molecule expression” value was “increased central memory population and increased expression of granzyme B, perforin, IFNγ, TNFα and FasL”; the “effect on proliferation or viability” value was “no effect on proliferation or viability”.

For the compound “CD80: inhibitory ligand of CTLA4 expressed on SupT1-GD2 cells”, in the data set on SupT1-GD2 cells, the “effect of target cell ligand expression on CAR T cytotoxicity” value was “mild enhancement of CAR T cytotoxicity”.

For “IFNγ: exogenous IFNγ used to upregulate PDL1 on tumor cell lines”, the PDL1 upregulation entry in data set [1] is “did upregulate PDL1 in some cell lines”. Moreover, the “target cell killing with exogenous IFNγ” value in data set [2] is recorded as “increased target cell killing”.

As for “SHP2-directed sgRNA: PTPN11 sgRNA (GAGACUUCACACUUUCCGUU) complexed with Cas9 nuclease (complexed with Cas9 nuclease, further chemistry not given here)”, in the data set with SHP2 (PTPN11) gene, the indel formation result is recorded as “greater than 80%”. For the same compound, in the data set on SHP2 protein, the SHP2 protein level result was “significant decrease in SHP2 protein”. Also, the “relief of PDL1-mediated inhibition of CAR T cells” value in the data set with SupT1-GD2-PDL1 cells [3] is “substantially less”.

In the case of pembrolizumab: antibody blocking PD1, in [4], the “restoration of IFNγ release, compared with Pembrolizumab” value is reported as “slightly greater restoration of IFNγ secretion at the highest concentration”. Also, the “restoration of proliferation, compared with Pembrolizumab” value in data set [5] is listed as “comparable effects”. The “restoration of killing, compared with Pembrolizumab” value with SupT1-GD2-PDL1 cells [6] is reported as “comparable effects”.

Values taken from paper PMC10272835, “Exploration of T cell immune responses by expression of a dominant-negative SHP1 and SHP2” (Frontiers in Immunology, 2023).
